Holding throughout (type): biochemical
For one test, the target named is T1, Syk (Homo sapiens, UniProt P43405).
T1 construct: purchased BPS Bioscience, CA, USA
In words: Syk enzyme assay (flash plate / Caliper mobility shift). The method, boiled down: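 Flashplate format used 2.5 nM SYK, 400 nM biotinylated peptide and 10 µM ATP with 33P tracer, pH 7.5, 1 h at 30 °C, read by radioactivity. Caliper format ran 90 min at 25 °C in HEPES pH 7.5, reading percent peptide conversion by mobility shift. IC50s came from dose-response curves.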

The target in the next test is T2, KDR (Homo sapiens, UniProt P35968).
T2 construct: purchased BPS Bioscience, CA, USA
T2 sequence (P35968 20-1356): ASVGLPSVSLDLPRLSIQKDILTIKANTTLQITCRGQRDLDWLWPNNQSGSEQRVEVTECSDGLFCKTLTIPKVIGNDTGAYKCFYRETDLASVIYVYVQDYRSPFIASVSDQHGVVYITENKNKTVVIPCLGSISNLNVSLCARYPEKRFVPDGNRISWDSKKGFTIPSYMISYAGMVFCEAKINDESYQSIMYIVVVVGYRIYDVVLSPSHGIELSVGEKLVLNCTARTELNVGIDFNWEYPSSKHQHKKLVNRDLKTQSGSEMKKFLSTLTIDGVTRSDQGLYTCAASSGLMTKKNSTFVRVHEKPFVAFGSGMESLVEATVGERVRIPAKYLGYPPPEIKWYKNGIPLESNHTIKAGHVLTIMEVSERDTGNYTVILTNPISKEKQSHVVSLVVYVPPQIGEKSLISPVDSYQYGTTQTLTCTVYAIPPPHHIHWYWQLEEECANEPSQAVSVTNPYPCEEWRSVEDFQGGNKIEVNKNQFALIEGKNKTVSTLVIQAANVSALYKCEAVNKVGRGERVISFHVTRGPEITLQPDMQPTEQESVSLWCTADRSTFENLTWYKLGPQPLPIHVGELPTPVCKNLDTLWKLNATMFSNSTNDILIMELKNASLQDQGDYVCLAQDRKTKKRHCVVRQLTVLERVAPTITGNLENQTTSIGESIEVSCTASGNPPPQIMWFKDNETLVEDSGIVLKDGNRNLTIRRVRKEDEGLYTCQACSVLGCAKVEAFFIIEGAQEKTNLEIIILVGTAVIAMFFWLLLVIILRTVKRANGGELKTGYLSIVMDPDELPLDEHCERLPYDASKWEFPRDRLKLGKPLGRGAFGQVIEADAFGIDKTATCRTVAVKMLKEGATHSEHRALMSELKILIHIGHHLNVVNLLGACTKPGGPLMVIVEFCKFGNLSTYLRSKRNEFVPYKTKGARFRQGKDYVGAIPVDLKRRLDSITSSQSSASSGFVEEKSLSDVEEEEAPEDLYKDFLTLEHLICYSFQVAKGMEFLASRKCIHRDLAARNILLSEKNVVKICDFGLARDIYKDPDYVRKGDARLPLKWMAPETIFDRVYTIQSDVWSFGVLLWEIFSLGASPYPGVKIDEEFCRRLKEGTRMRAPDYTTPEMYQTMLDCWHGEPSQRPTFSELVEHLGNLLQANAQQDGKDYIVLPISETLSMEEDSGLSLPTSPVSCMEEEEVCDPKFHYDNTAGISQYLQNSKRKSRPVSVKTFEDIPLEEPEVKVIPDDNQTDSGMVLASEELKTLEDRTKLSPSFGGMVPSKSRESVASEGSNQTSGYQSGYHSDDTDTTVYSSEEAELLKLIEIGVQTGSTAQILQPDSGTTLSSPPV
In words: KDR enzymatic assay (Caliper LifeSciences technology). As to the method: (§1) Enzymatic Assays Using the Caliper LifeSciences Technology
(§2) The assays described here are performed on the Caliper Life Sciences LC3000 system This technology provides data on enzyme activity via measurement of the relative amounts of phosphorylated or unphosphorylated fluorescently labelled substrate peptide at the end of an enzymatic reaction. These different states of peptide are resolved by applying a potential difference across the sample. The presence of the charged phosphate group on the product (as opposed to the substrate) causes a different peptide mobility between the two peptides. This is visualized by excitation of the fluorescent label on the substrate and product peptides and represented as peaks within the analysis software.
(§3) In order to measure inhibitor activity of kinase inhibitors on this technology, a TTP Mosquito liquid handling instrument is used to place 0.25 ul of the appropriate concentration of inhibitor in 100% DMSO (for a dose response curve calculation) into each well of a 384-well plate. To this reaction components are added to a final volume of 25 ul. The table below indicates the sequences and concentrations for the assays described in this report. Standard components are 1 mM DTT (Sigma, D0632), 1 mM MgCl2 (Sigma, M1028), 100 mM HEPES pH 7.5 (Calbiochem, 391338), 0.015% Brij-35 (Sigma, B4184).
(§4) The reaction is incubated for 90 min at 25 C, and then stopped by the addition of 70 ul of Stop buffer (100 mM HEPES pH 7.5, 0.015% Brij-35, 10 mM EDTA (Sigma, E7889)).
(§5) The plate is read on a Caliper LC 3000 in an Off-Chip mobility shift assay format, on a 12-sipper chip. Unphosphorylated substrate and phosphorylated product peptide resolve as separate peaks allowing direct measurement of percentage of conversion of substrate to product. The percent conversion can be plotted against concentration of inhibitor to produce a sigmoidal dose response curve, from which an IC50 can be calculated using GeneData Condoseo or a similar product. Cellular activity assays

For a further test, the target named is T3, Src (Homo sapiens, UniProt P12931).
T3 construct: purchased Carna Bioscience, Kobe, Japan
T3 sequence (P12931 whole entry): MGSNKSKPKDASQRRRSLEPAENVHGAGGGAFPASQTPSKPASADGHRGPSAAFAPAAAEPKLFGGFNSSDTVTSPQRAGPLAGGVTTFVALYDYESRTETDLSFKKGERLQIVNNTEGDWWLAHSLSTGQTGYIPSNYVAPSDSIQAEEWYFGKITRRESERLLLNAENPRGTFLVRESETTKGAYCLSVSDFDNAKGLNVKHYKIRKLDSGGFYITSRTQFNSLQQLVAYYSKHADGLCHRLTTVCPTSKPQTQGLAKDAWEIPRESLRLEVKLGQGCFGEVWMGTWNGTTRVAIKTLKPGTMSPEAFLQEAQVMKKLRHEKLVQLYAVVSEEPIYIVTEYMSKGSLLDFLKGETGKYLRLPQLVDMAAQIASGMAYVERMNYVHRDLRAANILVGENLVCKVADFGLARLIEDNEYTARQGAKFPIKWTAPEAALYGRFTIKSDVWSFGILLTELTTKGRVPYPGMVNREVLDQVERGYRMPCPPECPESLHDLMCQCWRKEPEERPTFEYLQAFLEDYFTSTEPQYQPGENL
Kind of test: cSrc enzymatic assay (Caliper LifeSciences technology). On the procedure: as §1, §2, §3, §4, §5

Some results are limits rather than exact numbers.

In general, IC50 refers to the concentration at which inhibition is half-maximal. Consider `Cc1cc(C)cc(Nc2nc3c(NCCCN4CCOCC4)nccn3n2)c1` [Example C28, N^2-(3,5-Dimethyl-phenyl)-N^8-(3-morpholin-4-yl-propyl)-[1,2,4]triazolo[1,5-a]pyrazine-2,8-diamine], for which the results for the IC50 at Syk, against KDR and against Src were 3 to 50 µM, 0.3 to 3 µM and 3 to 50 µM, respectively.
Regarding `COc1cc(Nc2nc3c(-c4cccc(C(N)=O)c4)nccn3n2)cc(OC)c1` [Example C276, 3-[2-(3,5-Dimethoxy-phenylamino)-[1,2,4]triazolo[1,5-a]pyrazin-8-yl]-benzamide], the IC50 on Syk is less than 0.3 µM; at KDR it was less than 0.3 µM; at Src, 0.3 to 3 µM.
`COCCCNc1nccn2nc(Nc3cc(OC)cc(OC)c3)nc12` [Example C40, N^2-(3,5-Dimethoxy-phenyl)-N^8-(3-methoxy-propyl)-[1,2,4]triazolo[1,5-a]pyrazine-2,8-diamine]: the IC50 at Syk, on KDR and against Src was 3 to 50 µM each time.
With `COc1cc(Nc2nc3c(-c4cccc(CN)c4)nccn3n2)cc(OC)c1` [Example C114, [8-(3-Aminomethyl-phenyl)-[1,2,4]triazolo[1,5-a]pyrazin-2-yl]-(3,5-dimethoxy-phenyl)-amine], the IC50 at Syk is less than 0.3 µM; against KDR, 0.3 to 3 µM; against Src, 0.3 to 3 µM.
In the case of `Cc1cc(C)cc(Nc2nc3c(-c4cccnc4)nccn3n2)c1` [Example C4, (3,5-Dimethyl-phenyl)-(8-pyridin-3-yl-[1,2,4]triazolo[1,5-a]pyrazin-2-yl)-amine], the IC50 on Syk, against KDR and against Src was 0.3 to 3 µM throughout.
Consider `COc1cc(Nc2nc3c(NCCCN4CCN(C)CC4)nccn3n2)cc(OC)c1` [Example C30, N^2-(3,5-Dimethoxy-phenyl)-N^8-[3-(4-methyl-piperazin-1-yl)-propyl]-[1,2,4]triazolo[1,5-a]pyrazine-2,8-diamine], for which the IC50 on Syk, at KDR and on Src was 3 to 50 µM each time.
As for `Cc1cccc(Nc2nc3c(NCCCN(C)C)nccn3n2)c1` [Example C46, N^8-(3-Dimethylamino-propyl)-N^2-m-tolyl-[1,2,4]triazolo[1,5-a]pyrazine-2,8-diamine], the IC50 at Syk, at KDR and against Src was 3 to 50 µM each time.
For `NC(=O)c1cccc(-c2nccn3nc(Nc4ccc(N5CCOCC5)cc4)nc23)c1` [Example C277, 3-[2-(4-Morpholin-4-yl-phenylamino)-[1,2,4]triazolo[1,5-a]pyrazin-8-yl]-benzamide], the figures for the IC50 at Syk, against KDR and against Src were less than 0.3 µM, less than 0.3 µM and 0.3 to 3 µM, respectively.
`CN(C)CCCNc1nccn2nc(Nc3cccc(C(F)(F)F)c3)nc12` [Example C33, N^8-(3-Dimethylamino-propyl)-N^2-(3-trifluoromethyl-phenyl)-[1,2,4]triazolo[1,5-a]pyrazine-2,8-diamine]: the IC50 at Syk, on KDR and against Src was 3 to 50 µM in each case.
Consider `Cc1cc(C)cc(Nc2nc3c(-c4ccc(N5CCOCC5)cc4)nccn3n2)c1` [Example C11, (3,5-Dimethyl-phenyl)-[8-(4-morpholin-4-yl-phenyl)-[1,2,4]triazolo[1,5-a]pyrazin-2-yl]-amine], for which the IC50 at Syk, against KDR and against Src was 3 to 50 µM each time.

Values taken from patent publication US9023851B2 (Merck Patent GmbH, priority 2010, dated 2015).
